For data set [1] the following is noted: cited from earlier work.
For data set [2], the system named is healthy person. The data set is described as follows: Wake-up remedial effect of alanylglutamine on daily consumption (Test Examples 1 and 2). Type of data set: in vivo, human. The following applies: continuously for 1 month. An excerpt:
Test examples in which the wake-up remedial effect of alanylglutamine was examined are indicated below.

The conditions of data set [3]: cited from earlier work. This is another data set of the same source.

Peptide text beside a SMILES is read from it.

Here are results for 2 molecules from patent publication US20100234308A1, “WAKE-UP REMEDY” (Kyowa Hakko Kogyo Co., Ltd., priority 2006, published 2010).

Regarding `C[C@H](N)C(=O)N[C@@H](CCC(N)=O)C(=O)O` [alanylglutamine] (H-Ala-Gln-OH), the “degradation in the body” value in data set [1] is “immediately degraded into alanine and glutamine”. Besides, the awaking result in data set [2] (0.5 g daily before going to bed) is given as “improvement in awaking”. The awaking entry in data set [2] (1.5 g daily) is reported as “improvement in awaking”. Besides, in data set [3] (compared to glutamine), the heat stability result was “superior” and the “solubility in aqueous solutions” value is “superior”.
Regarding `NC(=O)CC[C@H](N)C(=O)O` [glutamine, reference compound], the solubility result in data set [3] is on record as “low-solubility”.
